The record followed here is BindingDB's records for doi:10.7270/Q2K935WV (Nmmlsc, 2008).

The structures appear in SMILES notation. Structures can show the parent of a compound that is named as a salt.

Sequence of Isoform Bcl-X(L) of Bcl-2-like protein 1 (Bcl-xL) (Q07817 whole entry G70A, canonical isoform): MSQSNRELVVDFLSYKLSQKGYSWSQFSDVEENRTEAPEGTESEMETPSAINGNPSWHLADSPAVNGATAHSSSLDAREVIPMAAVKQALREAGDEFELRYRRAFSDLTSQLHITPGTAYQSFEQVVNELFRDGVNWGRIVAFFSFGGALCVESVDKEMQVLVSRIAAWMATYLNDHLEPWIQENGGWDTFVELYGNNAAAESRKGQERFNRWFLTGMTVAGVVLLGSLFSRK

The first test has as its target Isoform Bcl-X(L) of Bcl-2-like protein 1 (Bcl-xL) (Homo sapiens, UniProt Q07817). The test is described as follows: Bcl-XL binding to Bim peptide disruption – biochemical, multiplexed, bead flow cytometry, human Bcl-XL, dose response (AID 1322). Particulars: inactive by the depositor's call; pH 7.4; 4 °C. (Flow cytometry measures light scatter and fluorescence of single cells or particles in a stream.)
In the case of `CCN(CC)c1ccc(-c2nn3c(-c4cccnc4)nnc3s2)cc1`, the concentration for a half-maximal effect (EC50) (in general, the concentration giving half of the maximal effect) stood at 7.92 µM. This counts as single-digit micromolar.

In the case of `CCOCCCNc1nc(S)nc2cc(OC)c(OC)cc12`, the concentration for a half-maximal effect (EC50) turned out to be 3.43 µM.

For the molecule `COCCNc1[nH]c(=S)nc2cc(OC)c(OC)cc12`, a half-maximal effect (EC50) was put at 7.43 µM. Compared with the last molecule, the EC50 is about 2.2-fold higher.

As to `CN1CCN(C2=C(Cl)C(=O)C(c3cnc(N4CCCCC4)s3)=C(Cl)C2=O)CC1`, the response was half-maximal at 1 µM (EC50).

`CCOC(=O)c1ccc(Nc2nc(C(=O)OCC)nc3ccccc23)cc1`: the EC50 worked out at 2.97 µM.

As for `CCOCCCn1c(N)c(C(=O)Nc2sc3c(c2C(=O)OC)CCCC3)c2nc3ccccc3nc21`, the response was half-maximal at 1.97 µM (EC50).

For the molecule `CCN1C(=O)/C(=C/C=C2\C=CN(CC)c3ccccc32)SC1=S`, the concentration giving a half-maximal response (EC50) came out at 29.5 µM.

Regarding `Cc1ccc(-c2ccc(/C=C/C(=O)c3ccccc3)o2)cc1`, a half-maximal response (EC50) required 5.19 µM.

Take `O=S1(=O)N=C(N(CCO)N=C/C=C/c2ccccc2)c2ccccc21`: the concentration giving a half-maximal response (EC50) worked out at 20 µM.

`COc1ccc(-n2c(=O)c3ccccc3c3ccccc3c2=O)c(OC)c1`: the half-maximal effective concentration (EC50) came to 12.8 µM.

For `CCOC(=O)c1c2c3c(cccc3[nH]c1=O)C(=O)c1ccccc1-2`, a half-maximal response (EC50) required 2.12 µM. Against the preceding molecule, the EC50 is about 6-fold lower.

The molecule `COc1cc2nc(=S)n(CCCN3CCOCC3)c(N)c2cc1OC` had an EC50 of 10.9 µM.

For `Cc1ccc(C(=O)/C=C/c2ccc(-c3ccc(C)cc3)o2)cc1` [1-p-Tolyl-3-(5-p-tolyl-furan-2-yl)-propenone], the EC50 worked out at 2.14 µM.

For the molecule `Cc1cc(OCc2cn3cccnc3n2)ccc1Cl` [2-[(4-chloranyl-3-methyl-phenoxy)methyl]imidazo[1,2-a]pyrimidine], the concentration for a half-maximal effect (EC50) came to 17.9 µM.

With `O=C(CSc1ccc2nnc(-c3ccccn3)n2n1)Nc1nccs1` [2-[[3-(2-pyridinyl)-[1,2,4]triazolo[4,3-b]pyridazin-6-yl]thio]-N-(2-thiazolyl)acetamide], the EC50 worked out at 11.3 µM.

For the molecule `O=C(/C=C/c1ccccc1Cl)c1ccccc(=O)c1O` [3-[(E)-3-(2-chlorophenyl)prop-2-enoyl]-2-oxidanyl-cyclohepta-2,4,6-trien-1-one], a half-maximal effect (EC50) was put at 19.3 µM.

The molecule `NC(=O)c1sc2nc3c(c(-c4ccco4)c2c1N)CCC3` [3-amino-4-(2-furyl)-6,7-dihydro-5H-cyclopenta[b]thieno[3,2-e]pyridine-2-carboxamide] had a concentration giving a half-maximal response (EC50) of 3.43 µM.

The molecule `c1cncc(-c2nnc3n2N=C(c2cccs2)CS3)c1` [3-pyridin-3-yl-6-thiophen-2-yl-7H-[1,2,4]triazolo[3,4-b][1,3,4]thiadiazine] yielded a concentration giving a half-maximal response (EC50) of 7.17 µM. Against the preceding molecule, the EC50 is about 2.1-fold higher.

`Cc1nc2ncccn2c1-c1csc(Nc2ccccc2)n1` [4-(2-methyl-3-imidazo[1,2-a]pyrimidinyl)-N-phenyl-2-thiazolamine] displayed an EC50 of 10.1 µM.

Consider `Cc1cc(C)nc(SCc2cc(=O)c(OC(=O)c3ccc(Cl)c([N+](=O)[O-])c3)co2)n1` [4-chloro-3-nitrobenzoic acid [6-[[(4,6-dimethyl-2-pyrimidinyl)thio]methyl]-4-oxo-3-pyranyl] ester], for which the EC50 came out at 5.09 µM.

As for `O=C(N[N-][CH+]c1ccc(-c2ccccc2[N+](=O)[O-])o1)c1cncc(Br)c1` [5-bromo-N-[[5-(2-nitrophenyl)furan-2-yl]methylideneamino]pyridine-3-carboxamide], the EC50 came to 28.3 µM.

Molecule `COc1cc2nc(=S)[nH]c(NCC3CCCO3)c2cc1OC` (centres undefined) [6,7-dimethoxy-4-(2-oxolanylmethylamino)-1H-quinazoline-2-thione] came in with an EC50 of 4.65 µM.

`CCOc1ccccc1-n1c(=O)c2ccccc2c2ccccc2c1=O` [6-(2-ethoxyphenyl)-5H-dibenzo[c,e]azepine-5,7(6H)-dione]: the EC50 stood at 26.5 µM.

`COc1ccc(C2=Nn3c(nnc3-c3ccco3)SC2)cc1OC` [6-(3,4-Dimethoxy-phenyl)-3-furan-2-yl-7H-[1,2,4]triazolo[3,4-b][1,3,4]thiadiazine]: the 50% effective concentration (EC50) stood at 2.85 µM.

In turn, `CCOc1ccc(C2=Nn3c(nnc3-c3ccccn3)SC2)cc1` [6-(4-ethoxyphenyl)-3-(2-pyridinyl)-7H-[1,2,4]triazolo[3,4-b][1,3,4]thiadiazine] yielded an EC50 of 14.3 µM.

For the molecule `O=c1nc2c(O)cccn2c2c1c(O)nc1ccccc12` [9-Hydroxy-5H-5,8,12a-triaza-benzo[c]phenanthrene-6,7-dione], the EC50 is 13.7 µM.

`CN(N=C/C=C/c1ccccc1)C1=NS(=O)(=O)c2ccccc21` [(1E,2E)-3-phenylacrylaldehyde (1,1-dioxido-1,2-benzisothiazol-3-yl)(methyl)hydrazone] had a half-maximal effective concentration (EC50) of 2.82 µM.

Take `COc1cc(/C=C2\CC/C(=C\c3cc(OC)c(O)c(OC)c3)C2=O)cc(OC)c1O` [(2E,5E)-2,5-bis[(4-hydroxy-3,5-dimethoxyphenyl)methylidene]cyclopentan-1-one]: the concentration giving a half-maximal response (EC50) is 3.02 µM.

`O=C1/C(=C\c2ccc(-c3ccccc3Cl)o2)SC(=S)N1CC1CCCO1` (centres undefined) [(5E)-5-[[5-(2-chlorophenyl)furan-2-yl]methylidene]-3-(oxolan-2-ylmethyl)-2-sulfanylidene-1,3-thiazolidin-4-one] returned an EC50 of 1.55 µM. Compared with the last molecule, the EC50 is about 1.9-fold lower.

Molecule `Cc1ccc(-c2ccc(/C=C3\SC(N4CCOCC4)=NC3=O)o2)cc1` [(5Z)-5-[[5-(4-methylphenyl)-2-furanyl]methylidene]-2-(4-morpholinyl)-4-thiazolone] had an EC50 of 78.6 µM.

Turning to `O=C1c2ccccc2-c2onc3ccc(NCc4ccco4)c1c23` [MLS000080234], the EC50 is 10.2 µM. This EC50 lies about 7.7-fold lower than the previous one.

In the case of `Cc1cc(-c2nnc3n2N=C(c2ccc(-c4ccccc4)cc2)CS3)[nH]n1` [MLS000082991], the EC50 turned out to be 11.7 µM. This EC50 and that of the molecule before are within 1.5-fold of each other.

Regarding `Cc1cc2n(c1)CCn1c(C)ccc1-2` [MLS000104384], the half-maximal effective concentration (EC50) was 26.5 µM.

`CCCCNC(=O)c1ccc2nc(-c3ccco3)c(-c3ccco3)nc2c1` [MLS000119995] displayed a concentration for a half-maximal effect (EC50) of 25.3 µM.

`Clc1nc(NCc2cccnc2)nc(N2CCOCC2)n1` [MLS000121154] yielded a half-maximal effective concentration (EC50) of 18.1 µM.

The molecule `COCCCn1c(N)c(C(=O)Nc2sc3c(c2C(=O)OC)CCCC3)c2nc3ccccc3nc21` [MLS000595323] gave a half-maximal effective concentration (EC50) of 3.32 µM.

`COc1cc2nc(=S)[nH]c(NCCc3ccc(S(N)(=O)=O)cc3)c2cc1OC` [MLS000674601]: the EC50 is 0.51 µM.

The molecule `COc1ccc(C)cc1-n1c(=O)c2ccccc2c2ccccc2c1=O` [MLS000682999] yielded an EC50 of 18.7 µM.

In turn, `Cc1ccnc(SCc2cc(=O)c(OC(=O)c3ccc(Cl)c([N+](=O)[O-])c3)co2)n1` [MLS000696790] gave an EC50 of 19.6 µM.

Regarding `CCOC(=O)c1c(O)nc2ccc(Cl)c3c2c1-c1ccccc1C3=O` [MLS000704595], the midpoint of the response, the EC50, lay at 5.86 µM.

`Cc1ccc(OCc2cn3cccnc3n2)cc1` [MLS000723172] yielded an EC50 of 46.1 µM.

In turn, `c1ccc(Nc2cccc(Nc3ccccc3)n2)cc1` [N,N'-diphenyl-2,6-pyridinediamine] returned a concentration for a half-maximal effect (EC50) of 6.98 µM.

`CC(=O)c1ccc(NC(=O)c2ccc3nc(-c4ccco4)c(-c4ccco4)nc3c2)cc1` [N-(4-acetylphenyl)-2,3-di-2-furyl-6-quinoxalinecarboxamide] came in with an EC50 of 23.1 µM.

The molecule `COc1ccc(CCNC(=O)c2ccc3nc(-c4ccco4)c(-c4ccco4)nc3c2)cc1OC` [N-[2-(3,4-dimethoxyphenyl)ethyl]-2,3-di-2-furylquinoxaline-6-carboxamide] displayed a half-maximal effective concentration (EC50) of 20.7 µM.

`Cc1cccc(C(=O)/N=c2\c(C#N)cc3c(=O)n4cccc(C)c4nc3n2Cc2ccco2)c1` [N-[3-cyano-1-(furan-2-ylmethyl)-10-methyl-5-oxodipyrido[3,4-c:1',2'-f]pyrimidin-2-ylidene]-3-methylbenzamide]: the EC50 was found to be 50.4 µM.

`COCCCNc1nc(S)nc2cc(OC)c(OC)cc12` [SMR000026607]: the half-maximal effective concentration (EC50) was 3.65 µM. Against the preceding molecule, the EC50 is about 14-fold lower.

In the case of `CSc1nnc2c3cc(C)ccc3n(Cc3ccccc3)c2n1` [SMR000046397], the response was half-maximal at 20.6 µM (EC50). Against the preceding molecule, the EC50 is about 5.6-fold higher.

The molecule `c1ccc(-c2nc(N3CCCCCC3)c3ccccc3n2)nc1` [SMR000046752] gave an EC50 of 21.9 µM.

As for `C#CCn1cc(C=C2C(=O)c3ccccc3C2=O)c2ccccc21` [SMR000196125], the response was half-maximal at 11.7 µM (EC50).

`CN(N=Cc1cccnc1)C1=NS(=O)(=O)c2ccccc21` [SMR000207578] gave an EC50 of 19.2 µM.

Still in this test, the particulars now being: pH 7.4; 4 °C.
On to `CN1CCc2cccc3c2[C@@H]1Cc1ccc(O)c(O)c1-3`, for which the 50% effective concentration (EC50) stood at 18.6 µM.

For the molecule `COc1cccc(CN=Nc2nn3cnnc3c3ccccc23)c1O`, the EC50 is 0.57 µM.

In turn, `CCC(/C=C1\Sc2ccc(OC)cc2N1CCO)=C\c1sc2ccc(OC)cc2[n+]1CCO` showed an EC50 of 19.2 µM.

Regarding `Cc1nc2ncccn2c1-c1csc(Nc2ccc(O)cc2)n1`, the EC50 is 0.39 µM.

`COc1cc(CN=Nc2nn3cnnc3c3ccccc23)ccc1O` [(4E)-2-methoxy-4-[[2-([1,2,4]triazolo[3,4-a]phthalazin-6-yl)hydrazinyl]methylidene]cyclohexa-2,5-dien-1-one] registered a 50% effective concentration (EC50) of 2.43 µM.

The molecule `O=C(/C=C\c1ccc(-c2ccccc2)o1)c1ccccc1` [(Z)-1-phenyl-3-(5-phenyl-2-furanyl)-2-propen-1-one] registered a 50% effective concentration (EC50) of 9.36 µM.

Take `CN1CCc2cccc3c2[C@H]1Cc1ccc(O)c(O)c1-3` [APOMORPHINE HYDROCHLORIDE]: a half-maximal effect (EC50) was put at 18.9 µM. Compared with the last molecule, the EC50 is about 2-fold higher.

The molecule `CCCCNc1[nH]c(=S)nc2cc(OC)c(OC)cc12` [MLS000520261] came in with an EC50 of 3.81 µM.

`OCCN1CCN(CCCc2c3c(cc4c2CCC4)CCC3)CC1` [MLS000698424] yielded an EC50 of 16.1 µM.

Regarding `COc1cccc2c(SCC(=O)NN=Cc3ccc(O)cc3O)cc(C)nc12` [N'-[(E)-(2-hydroxy-4-oxo-1-cyclohexa-2,5-dienylidene)methyl]-2-[(8-methoxy-2-methyl-4-quinolinyl)thio]acetohydrazide], the EC50 amounted to 83.6 µM.

In turn, `COc1cc(C=NNC(=O)CN(Cc2ccco2)S(=O)(=O)c2ccccc2)ccc1O` [N-(2-furanylmethyl)-N-[2-[[(E)-(3-methoxy-4-oxo-1-cyclohexa-2,5-dienylidene)methyl]hydrazo]-2-oxoethyl]benzenesulfonamide] came in with a half-maximal effective concentration (EC50) of 18.4 µM.

`COc1cccc(CN=Nc2nn3cnnc3c3ccccc23)c1` [N-[1-(3-Methoxy-phenyl)-meth-(E)-ylidene]-N'-[1,2,4]triazolo[3,4-a]phthalazin-6-yl-hydrazine] came in with an EC50 of 2.04 µM.

Molecule `O=C1c2ccccc2-c2onc3ccc(NCCCn4ccnc4)c1c23` [SMR000044769] had a concentration for a half-maximal effect (EC50) of 1.14 µM. Against the preceding molecule, the EC50 is about 1.8-fold lower.

Regarding `Clc1nc2ccccc2cc1CN=Nc1nc2ccccc2[nH]1` [SMR000221568], a half-maximal response (EC50) required 49.7 µM.
